Measured values as given in US6399622B1, “Method for diagnosing and alleviating the symptoms of chronic fatigue syndrome” (priority 1997, dated 2002).
Like-named read-outs stand apart in the source and are kept apart here.

Legend:
herpes viruses = conditions: cited from earlier work
HCMV = format: in vivo, human; conditions: for mean energy index: six months later
Description: HCMV-Isolated CFS Patients-Test of Antiviral Treatment. A study was conducted to assess the possible efficacy of ganciclovir treatment on a subset of CFS patients with (1) high HCMV IgG ELISA antibody titers; (2) minimal/no serologic evidence of concurrent EBV multiplication; and (3) oscillating ECG abnormalities at Holter monitoring. Patients. From March, 1993, through June, 1994, 3 men and 15 women with the mean age of 39.7 plus or minus 7.7 years, with CFS (as defined by the USA, Centers for Diseases Control criteria), were recruited from a single infectious diseases referral center in Birmingham, Mich. Approximately 50 patients with chronic fatigue syndrome were screened for inclusion in this study. […] In these 18 CFS patients, baseline standard 12 lead ECG, 2-D echocardiogram, rest-stress myocardial perfusion (thallium 201 or Tc-99 cardiolite) and rest-stress multiple […] acquisitions (MUGA) studies as well as coronary angiography excluded coronary artery disease. HCMV ELISA and HCMV ELISA IgG titers, as well as EBV capsid antigen (VCA), ELISA IgM and EBV total early antigens (EA) immunofluorescent antibody titers were assayed. Additionally, buffy coats, urine and myocardial biopsies were tested for infectious HCMV. […] Holter monitoring, MUGA studies and endomyocardial biopsies in these patients were done. Holter monitors, MUGA studies and endomyocardial biopsies were read blindly without knowledge of the patient. Also readings were repeated by at least one, and often several, other physician readers. A patient's 24-hour Holter monitor was considered positive if T-waves became intermittently inverted or flat. Labile T-wave abnormalities at Holter monitoring were present in each CFS patient. In addition to the Holter monitoring, at each outpatient visit, a subjective evaluation of the patient's functional status was recorded using the energy index (EI) as previously described. Infusions of Ganciclovir. After placement of a peripherally inserted central catheter (PICC) or a groshong catheter, ganciclovir was given intravenously in a dose of 5 mg. per kg. at 12-hour intervals for 30 days. Patients were seen once a week by the same physician and complete blood counts, SMA values and urinalysis were conducted. […] They were advised to avoid exercise, fatigue and alcohol and engage in regular sleeping patterns. Statistical Methods. Eighteen patients, 3 men and 15 women, all with CFS, with a mean age of 39.7 ranging from 29 to 51 years, were evaluated. Statistical significance between patients meeting the criteria for the HCMV subset and other patients with CFS were evaluated using tests of homogeneity of chi-square analysis and the two-tailed Fisher's exact test for bivariate analysis of dichotomous data.

[1] = in vivo, po, 1000 mg; cited from earlier work
[2] = tested on: human cytomegalovirus (nonstructural gene products p52 and CM2); experiment: Example 4: Copalis antibody titers and fatigue after ganciclovir in HCMV CFS patients; format: in vivo
Text: This Copalis® method to CM2 and p52 measures IgM antibodies to HCMV non-structural gene products. The non-structural gene products are UL44, UL57. These gene products have been produced in E-coli. The UL44 and UL57 refer to the open reading frames (ORF) of the human cytomegalovirus genome. The UL44 has the function of a polymerase processivity factor known as p52. The UL57 is the second gene product which may be measured by the Copalis® method and its function is as a single-stranded (ss) DNA binding protein CM2. These are nonstructural gene products which are extruded from a cell with incomplete human cytomegalovirus multiplication. The Copalis® method measures antibodies to these two gene products with the purified antigens produced in E-coli.
The Copalis® CMV Mutliplex assay is a homogenous test for the simultaneous determination of acute infection stages or immune status to Cytomegalovirus using coupled particle light scattering. Sized microparticles, coated with one of three antigens (p52, CM2, and CMV viral particle (VP)) are dried in the reaction cup. Early phase IgM antibodies are detected by both the CM2 and the p52 antigens. Antibody response to the CM2 antigen but not to the p52 antigen continues through the convalescent stage of acute infection. Antibodies to the VP may appear during acute infection but shall persist during life. Reactivity just (sucrose-density purified tissue culture produced complete HCMV cytomegalovirus) to the VP is characteristic of prior infection (indicative of immune status). Antibody detection, made by the Copalis® Immunoassay System, is reported qualitatively for the IgM analytes and semi-quantitatively for the total analyte.
The Copalis® CMVplex Antibody Assay is based on the principle of antibody dependent particle aggregation as measured by the amount of light scattered. A typical antibody reactivity pattern (IgM and/or IgG) in the patient sample allows diagnosis of the infection as seronegative, acute or past infections. The CMVplex Test Cup has polystyrene microparticles of three sizes each coated with different specific antigens dried in the bottom. The Test Cup is reconstituted with reaction buffer by the instrument. The sample is then transferred into the reaction well and the mixture is agitated for 10 minutes. Upon completion of the agitation, the reaction mixture is transferred to the optical system for analysis.
The level of aggregation is determined by discrimination of particle sizes and unreacted particles (monomers) as detected by the optical system. The quantity of assay particles remaining as monomers is compared to that of an unreacted baseline negative calibrator. A ratio is established between the counts of the two monomer particles. This ratio is reported as the Copalis® Test Result (CTR). The CTR is then converted into a numerical unit, Copalis® Index (CI), which determines the cutoff thresholds for each marker. Interpretation of results is based upon the CI. Results for the IgG marker (VP) are reported semi-quantitatively and qualitatively for the IgM markers (p52 and CM2).
Results of Copalis® antibody testing in patients with the U.S. CDC-Chronic Fatigue Syndrome and various other patients with severe onset of […] fatigue. Group 1) Eight patients were studied with the chronic fatigue syndrome. They are six women and […] with ages ranging from 32 through 48. They had IgG antibodies to human cytomegalovirus. […] They would be evaluated as having past infection. […]

[3] = tested on: Epstein-Barr virus persistent infection; experiment: Example 2: valacyclovir treatment of EBV-isolated CFS patients; format: in vivo, human
Text: EBV-Isolated CFS Patients—Test of Antiviral Treatment. […] EBV active infection was documented by EBV VCA IgM antibodies and/or EBV EA elevated antibody titers. All of these patients had their energy levels reduced by 50% or more and were partially or entirely non-functional, unable to work or maintain a household. These ten patients had no diseases or complicating conditions which could have accounted for their chronic fatigue syndrome symptoms and they had no prior psychiatric diseases.
Each patient's functional status was recorded as a statistically validated energy index (EI). At each out-patient visit, subjective evaluation of the patient's functional status was recorded using this energy index. The energy index records the average subjective vitality of the patient in the immediate 14 days prior to this specific out-patient visit. When minor illnesses such as the common cold complicated a visit, evaluation of the EI for a patient was delayed until the intercurrent problem receded.
Prior to the initiation of the antiviral treatment and following approximately six months of treatment, objective evaluations of the ability to work and the energy index of each of the ten patients was analyzed.
Pursuant to the energy index, a patient with a 0 energy index (EI) is bedridden. With an energy index of 1 or 2, any activity by the patient leads to overwhelming, incapacitating fatigue. Such patients are generally light-headed, unable to think clearly, and concentration is difficult for any extended period of time (over 60 minutes). Left-sided chest aches, palpitations, sore throats and feverishness are frequent. These patients may be out of bed for intermittent, brief periods of the day.
Patients with an energy index between 3 and 5 can, with great effort, be out of bed for several hours each day doing non-physical activities. […] These patients express variable light-headedness, inability to think clearly or read normally. Left-sided chest aches, palpitations, sore throats and feverishness occur often. Patients within this energy range cannot perform a 40 hour sedentary job or maintain the duties of a homemaker including such activities as cooking and cleaning. In general, CFS patients have an energy index of 5 or less.
Patients with an energy index between 6 and 9 can assume normal activities and maintain a 40 hour work week and, with pacing, maintain a household. […] These patients can do light physical work or exercise in moderation without fatigue.
Patients with an energy index of 10 have normal energy levels, stamina and a sense of well-being. Light-headedness, difficulties in concentrating and reading ability and chest aches, palpitations, sore throats and feverishness are absent.
During the initial and final clinical visits, each CFS patient was studied to determine the IgM antibodies to the EBV viral capsid antigen (VCA), total early antigens (EA), and enzyme immunoassays (ELISA) to HCMV IgM and HCMV ELISA IgG titers. An IgM EBV VCA antibody titer indicates infectious lytic EBV multiplication within the most recent 3 month period. During the EBV infectious lytic cycle, antigen is expressed which can be divided into a diffuse (EAD) complex and a cytoplasmic restricted EAR complex (EAR). As a result, each patient's EAD was assayed. The presence of EBV EA antibody indicates current EBV multiplication. Likewise, an elevated […] IgM antibody indicates recent EBV or HCMV multiplication, respectively. The EBV VCA antibody IgM titers were done by the ELISA method. As a control group, similar serum antibody titers were measured in 20 non-CFS individuals. In the non-CFS control group, the mean HCMV IgG titer was 240.
Dosage. Each of the patients was administered an oral dose of valacyclovir at 10 mg/kg by mouth every six hours.
Demographics. There were nine women and one person. Their ages ranged from 20-67 years. Their mean age was 43.3 years. […]

[4] = eight CFS patients, intravenous followed by oral ganciclovir

For O=C(O)P(=O)(O)O [Foscarnet sodium, trisodium phosphonoformate], which “activity against herpes viruses” value (herpes viruses; in vitro and in vivo) is on record?
The value was “potent in vitro and in vivo activity”.

For O=c1[nH]c(=O)n([C@@H]2O[C@H](CO)[C@@H](O)[C@@H]2O)cc1/C=C/Br [bromovinyl arabinosyl uracil], which “inhibition of herpes viruses” value (herpes viruses; herpes simplex virus Type 1, Epstein-Barr virus and VZV) is on record?
The value was “significant inhibition”.

For Nc1nc2c(ncn2COC(CO)CO)c(=O)[nH]1 [ganciclovir, 9-(1,3-dihydroxy-2-propoxymethyl) guanine], which mean energy index (HCMV; Group A (13 improved patients), start mean 3) is on record?
The mean energy index was 7.

What about the “patients with improved MUGA test results (lesser tardokinesis, hypokinesis or left ventricular dilatation)” value (HCMV; Group A, after treatment) of the same compound?
The value was 3 patients.

What about the “patients with previously abnormal myocardial dynamics reverted to normal (MUGA)” value (HCMV; Group A, after treatment) of the same compound?
Its value is 3 patients.

And the “patients who resumed normal pre-CFS activity levels” value (HCMV; Group B)?
The value was “none”.

And the mean energy index (HCMV; Group B (5 not improved patients), start mean 2)?
The mean energy index was 4.

And the fatigue (HCMV; case study)?
Its fatigue is “disappeared”.

What about the “maximal cardiac ejection fraction” value (HCMV; case study, a further five months later, from 54%) of the same compound?
The value was 68%.

And the “resting ejection fraction (stress MUGA)” value (HCMV; case study, five months after 30 days i.v. treatment, before 40%)?
Its value is 54%.

And the “increase of resting ejection fraction” value (HCMV; case study, from 40% to 54%)?
The value was 14%.

What about the serum creatinine (HCMV; human, in vivo) of the same compound?
Its serum creatinine is “transient increase in serum creatinine”.

And the adverse events (HCMV; human, in vivo, iv)?
The adverse events was “no adverse events or symptoms attributable to ganciclovir”.

And the patients improved (HCMV; of 18 CFS patients, 5 mg per kg i.v. at 12-hour intervals for 30 days)?
The patients improved was 13 patients.

And the “MUGA study at follow up” value (HCMV; one Group B patient with initial normal MUGA, 6 months after treatment)?
Its value is “showed septal hypokinesis”.

And the clinical response (HCMV; small preliminary subset of CFS patients with HCMV infection, no concurrent EBV multiplication)?
Its clinical response is “salutary response”.

What about the “activity level after antiviral treatment” value (HCMV; the 13 patients in Group A) of the same compound?
The value was “resumed their normal pre-CFS activity levels”.

What about the “bioavailability (of ganciclovir)” value [1] of the same compound?
Its value is 5.6%.

What about the “antibodies to nonstructural gene products p52 and CM2 (Copalis)” value [2, 4] of the same compound?
Its value is “became markedly lower and disappeared”.

What about the fatigue [2, 4] of the same compound?
Its fatigue is “remarkably lessened”.

And the clinical outcome ([2]; person positive only by p52, intravenous followed by oral ganciclovir)?
The clinical outcome was “improved remarkably”.

And the cardiac function ([2]; person with congestive heart failure and diabetes mellitus, intravenous)?
The cardiac function was “improved”.

And the “CM2 antibodies (Copalis)” value ([2]; two CFS patients with high CM2, no elevated p52, intravenous followed by oral ganciclovir)?
Its value is “lessened or disappeared”.

With CC(C)[C@H](N)C(=O)OCCOCn1cnc2c(=O)[nH]c(N)nc21 [valacyclovir] as the compound, how does the “mean energy index (EI) at completion of therapy” value ([3]; 10 EBV CFS patients, 10 mg/kg by mouth every six hours, about six months, pre-therapy mean EI 4.7) read?
Its value is 7.5.

And the “median energy index (EI) at completion of therapy” value ([3]; 10 EBV CFS patients, about six months of treatment)?
Its value is 7.

And the “range of energy index (EI) at completion of therapy” value ([3]; 10 EBV CFS patients, pre-therapy range 3.5 to 5.5)?
The value was 6-10.

What about the “patients with light-headedness, unsteadiness, inability to think well at completion of the trial” value ([3]; at beginning 9 out of 10) of the same compound?
The value was “one of ten”.

What about the “patients with palpitations at completion of the trial” value ([3]; at beginning five out of ten) of the same compound?
The value was “three out of ten”.

And the “patients with positive EA antibody titers (≧10) at completion of the trial” value ([3]; at beginning seven out of ten)?
The value was “eight out of ten”.

And the “patients with EBV VCA IgM positive titers at completion of the trial” value ([3]; before trial five out of ten)?
The value was “two out of ten”.

What about the “ability to work / activity level following treatment” value ([3]; each of the ten patients, after approximately six months) of the same compound?
The value was “able to fully engage in his/her activity level at work or home”.

And the “patients with chest pain at completion of the trial” value ([3]; prior to therapy five out of ten)?
Its value is “one out of ten”.

For CC(C)[C@H](N)C(=O)OCC(CO)OCn1cnc2c(=O)nc(N)[nH]c21 (stereo partly drawn) [valganciclovir], which “bioavailability (of ganciclovir)” value [1] is on record?
Its value is 60.9%.
